Measurements as given in patent US20240383908A1, “SYNTHESIS AND APPLICATION OF PHOSPHATASE DEGRADER” (HINOVA PHARMACEUTICALS INC., priority 2021, published 2024).

Key:
SHP2 protein = molecular target: T1, SHP2 protein (Homo sapiens, UniProt Q06124); assay: Degradation activity on SHP2 protein in MV-411 cells (Western blot, DC50); format: cell-based; set-up: endogenous in cells; conditions: MV411 cells, 24 hours, read-out: Degradation activity for differenct cell lines MV411 (DC50)
T1 sequence (Q06124 1-593): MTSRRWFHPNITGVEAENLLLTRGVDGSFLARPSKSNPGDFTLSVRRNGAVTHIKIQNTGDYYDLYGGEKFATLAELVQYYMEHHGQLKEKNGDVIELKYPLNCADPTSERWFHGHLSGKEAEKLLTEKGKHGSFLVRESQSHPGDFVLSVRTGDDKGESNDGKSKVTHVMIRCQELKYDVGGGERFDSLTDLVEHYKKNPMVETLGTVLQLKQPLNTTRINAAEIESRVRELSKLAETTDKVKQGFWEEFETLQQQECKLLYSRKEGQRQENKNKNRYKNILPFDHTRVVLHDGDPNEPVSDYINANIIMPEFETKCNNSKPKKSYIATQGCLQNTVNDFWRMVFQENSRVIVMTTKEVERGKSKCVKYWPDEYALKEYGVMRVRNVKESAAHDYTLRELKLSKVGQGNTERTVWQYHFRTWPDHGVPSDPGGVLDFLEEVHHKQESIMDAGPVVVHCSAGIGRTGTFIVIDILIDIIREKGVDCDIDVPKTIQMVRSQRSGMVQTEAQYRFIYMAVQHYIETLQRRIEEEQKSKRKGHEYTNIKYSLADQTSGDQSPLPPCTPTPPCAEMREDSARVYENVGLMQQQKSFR
Summary of the method: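 Western blot of SHP2 (GAPDH loading control, 30 μg protein/lane) in lysates of MV-411 cells exposed 24 h to final compound concentrations of 100, 10, 3, 1, 0.3 and 0.1 nM (0.1% DMSO). Degradation relative to DMSO set at 100%; DC50 derived by curve fitting.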

NCI-H358 = assay: Inhibition of cell proliferation, NCI-H358 (CCK-8); format: cell-based; conditions: Homo sapiens, NCI-H358 cells, read-out: Inhibition activity on the proliferation of different cell lines NCI-H358 (IC50)
Experimental: (1) MV-411 cells were cultured in the cell culture medium, and then well-growing cells were selected and inoculated in a 96-well plate at 80 μL/well, with 2×10^4 cells/well. The plate was incubated overnight in a 5% CO2 cell incubator at 37° C.
(2) 10 mM storage solution of each drug was prepared using dimethylsulfoxide (DMSO). The stock solution was diluted in a ratio of 1:3 with DMSO before use, and then the solution was serially diluted in a ratio of 1:3, to obtain 9 gradient concentrations. Each concentration was further diluted with the medium in a ratio of 1:200 (to ensure that the DMSO concentration in the culture system was 0.1%). Two wells were set for each concentration. 20 μL of each compound solution was added to the cell culture well (with a final concentration of 10 μM, 3.3 μM, 1.1 μM . . . ). The plate was gently shaken and mixed. Additionally, 3 negative control wells (only containing cells) and 3 blank control wells (only containing the medium) were included (6 wells were each added with 20 μL of DMSO diluted with the medium in a ratio of 1:200).
(1) After 5 days of cultivation, 10 μL of CCK-8 was added to each well, and then the plate was further cultured for 3 h at 37° C. in a 5% CO2 cell incubator.
(2) The absorbance (OD value) was measured at 450 nm with a multifunctional microplate reader. (3) The data were analyzed using the Dose-response-inhibition equation in GraphPad Prism8 software to obtain the IC50 value.
Using a similar method, the IC50 value (nM) for the inhibitory activity of the compound according to the present invention against different cell lines was obtained, and the results are shown in Table 3 (++++: IC50>5 μM; +++: 1 μM<IC50<5 μM; ++: IC50<1 μM).

DC50 (SHP2 protein) | IC50 (NCI-H358) | SMILES
< 100 nM | < 1000 nM | CC1(N)CCN(c2cnc(Sc3cccc(NC(=O)CCCCCCCCN4CCN(c5ccc(C(=O)NCc6ccc7c(c6)CN(C6CCC(=O)NC6=O)C7=O)nn5)CC4)c3)cn2)CC1 (stereo not drawn) [Compound 63]
< 100 nM | 1000 to 5000 nM | CCC1(N)CCN(c2cnc(Sc3cccc(NC(=O)CCCCCCN4CC5(CCN(c6ccc(C(=O)NCc7ccc8c(c7)CN(C7CCC(=O)NC7=O)C8=O)nn6)C5)C4)c3)cn2)CC1 (stereo not drawn) [Compound 161]
< 100 nM | 1000 to 5000 nM | NC1(CO)CCN(c2cnc(Sc3cccc(NC(=O)CCCCCCN4CC5(CCN(c6ccc(C(=O)NCc7ccc8c(c7)CN(C7CCC(=O)NC7=O)C8=O)nn6)C5)C4)c3)cn2)CC1 (stereo not drawn) [Compound 168]
< 100 nM | 1000 to 5000 nM | CC1(N)CCN(c2cnc(Sc3cccc(NC(=O)CCCCCCCCN4CCN(c5ccc(C(=O)NCc6ccc7c(c6)CN(C6CCC(=O)NC6=O)C7=O)nn5)CC4C(F)(F)F)c3)cn2)CC1 (stereo not drawn) [Compound 174]
< 100 nM | 1000 to 5000 nM | Cc1ncsc1-c1ccc([C@H](C)NC(=O)[C@@H]2C[C@@H](O)CN2C(=O)[C@@H](NC(=O)CCCCCCCCN2CCN(C(=O)CCC(=O)Nc3cccc(Sc4ncc(N5CCC(C)(N)CC5)nc4N)c3Cl)CC2)C(C)(C)C)cc1 [Compound 999]

SMILES | DC50 (SHP2 protein) | IC50 (NCI-H358)
CC1(N)CCN(c2cnc(Sc3cccc(NC(=O)CCCCCCCCN4C5CCC4CN(c4ccc(C(=O)NCc6ccc7c(c6)CN(C6CCC(=O)NC6=O)C7=O)nn4)C5)c3)cn2)CC1 (stereo not drawn) [Compound 119] | < 100 nM | < 1000 nM
